Reference: US7511074B2, “Tetrafluorobenzyl derivatives and pharmaceutical composition for preventing and treating acute and chronic neurodegenerative diseases in central nervous system containing the same” (AmKor Pharma, Inc., priority 2002, dated 2009)

Legend:
[1] = test system: Sprague-Dawley rats, occlusion of middle cerebral artery; experiment: Transient focal cerebral ischemia (60 min MCAO), infarct volume; format: in vivo, rat
Procedure: Adult rats received transient cerebral ischemia by occluding right middle cerebral artery and both common carotid arteries for 60 min with intraperitoneal injections of vehicle or 50 mg/kg 2-Hydroxy-TTBA at 5 min, 30 min, or 1 hr after reperfusion. Infarct volume was analyzed 24 hr later after staining brain slices with 2% 2,3,5-triphenyltetrazolium chloride (TTC), mean ±SEM (n=8-11 rats per each condition). *, Significant difference from the vehicle control, p<0.05 using ANOVA and Student-Neuman-Keuls' test.
Adult rats received transient cerebral ischemia by occluding right middle cerebral artery and both common carotid arteries for 60 min with intraperitoneal injections of vehicle (control) or 50 or 100 mg/kg 2-Hydroxy-TTBA at 5 min after reperfusion. Infarct volume was analyzed 24 hr later after staining brain slices with 2% 2,3,5-triphenyltetrazolium chloride (TTC), mean ±SEM (n=7-8 rats per each condition). *, Significant difference from the vehicle control, p<0.05 using ANOVA and Student-Neuman-Keuls' test.
(§1) Adult rats received transient cerebral ischemia by occluding right middle cerebral artery and both common carotid arteries for 60 min, with intravenous injections of vehicle (control) or 5 mg/kg 2-Hydroxy-TTBA at 30 min after occlusion or 5 min, 30 min, 1 hr, 2 hr, or 4 hr after reperfusion. Infarct volume was analyzed 24 hr later, mean ±SEM (n=8-11 rats per each condition). *, Significant difference from the vehicle control, p<0.05 using ANOVA and Student-Neuman-Keuls' test.
as §1, with “or 1, 2.5, 5, 10 or 20” for “or 5”, “at 5” for “at 30”, “min” for “min after occlusion or 5 min, 30 min, 1 hr, 2 hr, or 4 hr”, “±SEM (n=8-10” for “±SEM (n=8-11”
as §1, with “with oral administrations” for “with intravenous injections”, “or 10 or 20” for “or 5”, “at 5” for “at 30”, “min” for “min after occlusion or 5 min, 30 min, 1 hr, 2 hr, or 4 hr”, “±SEM (n=8-10” for “±SEM (n=8-11”
Sprague-Dawley rats were anesthetized with chloral hydrate, and subjected to focal cerebral ischemia by occlusion of middle cerebral artery (MCAO) as previously described [Tamura et al., J. Cerebr. Blood Flow Metab. 1:53-60 (1981)]. Both common carotid arteries (CCAs) were exposed and right middle cerebral artery (rMCA) was exposed under the surgical microscope by making a 3 mm diameter craniotomy rostral to the foramen ovale. CCAs and rMCA were occluded with microclips. The clips were released 60 min later and restoration of blood flow in rMCA was observed under the microscope
Animals received MCAO for 60 min, alone or with administration of 2-Hydroxy-TTBA (50 mg/kg, i.p.) at indicated points of time after reperfusion. Saline was injected as a control. Animals were euthanized 24 hr later and brains removed and sectioned coronally into seven 2-mm slices in a brain matrix. […] The infarction area, outline in white, was measured (TINA image analysis system) and infarction volume was calculated by summing the infarct volume showing white of sequential 2-mm-thick section, mean ±SEM (n=8-12 rats/condition) (FIG. 8a). […]

[2] = DPPH free radical scavenging assay; format: biochemical; conditions: 100 μM DPPH in ethanol; absorption at 517 nm; 1-100 μM
Procedure: 2-Hydroxy-TTBA (●) or trolox (◯) was reacted with 100 uM 1,1-diphenyl-2-picrylhydrazil (DPPH, a stable free radical) dissolved in ethanol for […]. The radical scavenging activity was determined by measuring the decrease in DPPH levels at 517 nm. *, Significant difference from the vehicle control, p<0.05 using ANOVA and Student-Neuman-Keuls' test.
2-Hydroxy-TTS (●), 2-Hydroxy-TTA (◯), 2-Chloro-TTP (▾) or control (∇) was reacted with 100 uM DPPH dissolved in ethanol. The radical scavenging activity was determined by measuring the decrease in DPPH levels at 517 nm. *, Significant difference from the vehicle control, p<0.05 using ANOVA and Student-Neuman-Keuls' test.
To examine the free radical scavenging effects, 1-100 μM 2-Hydroxy-TTBA, 2-Hydroxy-TTA, 2-Hydroxy-TTS, 2-Chloro-TTP or trolox was reacted with 100 μM DPPH (2,2-diphenyl-1-picryl-hydrazyl radical), a stable free radical, dissolved in ethanol. After incubation for 30 min, relative decrease in DPPH absorption at 517 nm was measured by a spectrophotometer, mean ±SEM (n=3 test tubes per condition). *, Significant difference from the vehicle control (DPPH alone), p<0.05 using ANOVA and Student-Neuman-Keuls' test.

[3] = intravenous, 5 min after reperfusion, 60 min MCAO

SMILES: O=C(O)c1cc(NCc2c(F)c(F)c(C(F)(F)F)c(F)c2F)ccc1O [2-Hydroxy-TTBA, 2-hydroxy-5-(2,3,5,6-tetrafluoro-4-trifluoromethylbenzylamino)benzoic acid]
- time after reperfusion up to which delayed injection significantly attenuated infarct volume ([1]; 5 mg/kg intravenous, 60 min MCAO, infarct volume 24 hr later): up to 4 hr
- time after reperfusion up to which delayed administration significantly reduced infarct volume ([1]; 50 mg/kg i.p., 60 min MCAO, infarct volume 24 hr later): up to 1 hr
- infarct volume after oral administration ([1]; 10 or 20 mg/kg p.o. at 5 min after reperfusion, 24 hr after 60 min MCAO): reduced infarct volume
- intravenous doses at which protective effects were observed [1, 3]: higher than 2.5 mg/kg
- lowest intravenous dose attenuating infarct volume [1, 3]: ≥ 1 mg/kg
- reduction of DPPH levels [2]: reduced levels of DPPH at lower doses
